For data set [1] the following is noted: Liquid; for Critical pressure: Direct measurement; for Critical temperature: Visual observation in an unstirred cell.
Data set [2] is described as follows: xn = mol fraction of the nth substance listed. Conditions: Liquid.

Each structure is given as a SMILES string. Numbers after ± are expanded uncertainties.

Consider `FC(C(F)(F)F)C(F)(F)F` [1,1,1,2,3,3,3-heptafluoropropane], for which, in data set [1], the Critical density amounted to 598 ± 14 kg/m3, the Critical pressure is given as 2930 ± 12 kPa and the Critical temperature turned out to be 375 ± 0.16 K.
As for `FC(C(F)(F)F)C(F)(F)F` [1,1,1,2,3,3,3-heptafluoropropane] + COC(F)(F)C(F)(F)F, in data set [2] (x2 = 0), the Critical density is recorded as 598 ± 14 kg/m3.
Consider `FC(F)C(F)C(F)(F)F` (stereo not drawn) [1,1,1,2,3,3-hexafluoropropane], for which, in data set [1], the Critical density came out at 562 ± 13 kg/m3, the Critical pressure turned out to be 3416 ± 12 kPa and the Critical temperature is 412.41 ± 0.16 K.
Regarding `FC(F)C(F)C(F)(F)F` (stereo not drawn) [1,1,1,2,3,3-hexafluoropropane] + COC(F)(F)C(F)(F)F, the Critical density in data set [2] (x2 = 0) stood at 562 ± 13 kg/m3; in data set [2] (x2 = 0.1546), 550 ± 13 kg/m3; in data set [2] (x2 = 0.3124), 535 ± 12 kg/m3; in data set [2] (x2 = 0.4485), 534 ± 12 kg/m3; in data set [2] (x2 = 0.6388), 520 ± 12 kg/m3; in data set [2] (x2 = 0.7888), 506 ± 12 kg/m3.
As to `FCC(F)(F)F` [1,1,1,2-tetrafluoroethane], in data set [1], the Critical density was found to be 508 ± 12 kg/m3, the Critical pressure is listed as 4053 ± 12 kPa and the Critical temperature is 374.13 ± 0.16 K.
Regarding `FCC(F)(F)F` [1,1,1,2-tetrafluoroethane] + COC(F)(F)C(F)(F)F, in data set [2] (x2 = 0), the Critical density was 508 ± 12 kg/m3.
`COC(F)(F)C(F)(F)F` [methyl pentafluoroethyl ether]: in data set [1], the Critical density was 491 ± 11 kg/m3, the Critical pressure came to 2885 ± 12 kPa and the Critical temperature amounted to 406.82 ± 0.16 K.
In the case of `COC(F)(F)C(F)(F)F` [methyl pentafluoroethyl ether] + FC(C(F)(F)F)C(F)(F)F, the Critical density in data set [2] (x1 = 0.1823) is recorded as 584 ± 14 kg/m3; in data set [2] (x1 = 0.306), 558 ± 13 kg/m3; in data set [2] (x1 = 0.4769), 545 ± 13 kg/m3; in data set [2] (x1 = 0.6944), 531 ± 12 kg/m3; in data set [2] (x1 = 0.8132), 519 ± 12 kg/m3; in data set [2] (x1 = 1) it was 491 ± 11 kg/m3.
As for `COC(F)(F)C(F)(F)F` [methyl pentafluoroethyl ether] + FC(F)C(F)(F)F, the Critical density in data set [2] (x1 = 0.1408) came out at 551 ± 13 kg/m3; in data set [2] (x1 = 0.2438) it was 543 ± 13 kg/m3; in data set [2] (x1 = 0.4346), 540 ± 13 kg/m3; in data set [2] (x1 = 0.5897) it was 536 ± 12 kg/m3; in data set [2] (x1 = 0.7753), 521 ± 12 kg/m3; in data set [2] (x1 = 1) it was 491 ± 11 kg/m3.
As for `COC(F)(F)C(F)(F)F` [methyl pentafluoroethyl ether] + FC(F)C(F)C(F)(F)F, in data set [2] (x1 = 1), the Critical density is reported as 491 ± 11 kg/m3.
As to `COC(F)(F)C(F)(F)F` [methyl pentafluoroethyl ether] + FCC(F)(F)F, the Critical density in data set [2] (x1 = 0.1167) came out at 508 ± 12 kg/m3; in data set [2] (x1 = 0.2446), 512 ± 12 kg/m3; in data set [2] (x1 = 0.4299) it was 509 ± 12 kg/m3; in data set [2] (x1 = 0.5886), 506 ± 12 kg/m3; in data set [2] (x1 = 0.7674), 503 ± 12 kg/m3; in data set [2] (x1 = 1), 491 ± 11 kg/m3.
Regarding `FC(F)C(F)(F)F` [pentafluoroethane], in data set [1], the Critical density was 560 ± 13 kg/m3, the Critical pressure came out at 3617 ± 12 kPa and the Critical temperature is 339.2 ± 0.16 K.
With `FC(F)C(F)(F)F` [pentafluoroethane] + COC(F)(F)C(F)(F)F, in data set [2] (x2 = 0), the Critical density is given as 560 ± 13 kg/m3.

The values above are taken from the NIST ThermoML archive (doi:10.1021/je0499420).
